Measurements from patent publication US9890315B2, “Use of polylysine as a shale inhibitor” (BASF SE, priority 2011, dated 2018).

What was measured:
[1] = Performance test: Fann rheology and gel strength of bentonite suspension with shale inhibitor; conditions: 7.14 g/l Shale Inhibitor and 85.7 g/l Bentonite
Protocol: 350 ml of tap water are introduced into a beaker, 2.5 g of the shale inhibitor (calculated as dry mass—i.e. quaternized or non-quaternized polylysine or a prior art product) are added and the mixture is stirred for 20 min. The solution is transferred into an HB mixing cup. 30 g of Cebogel® NT (Bentonite, Cebo Holland B.V., The Netherlands) are added as a model substance for shale and the mixture is stirred at low speed for 10 min. Subsequently, the Fann rheology and the gel strength are determined.

[2] = OECD 306: Biodegradability in Seawater, Closed Bottle Method
Protocol: According to the method described in “OECD Guidelines for Testing of Chemicals—1992 OECD 306: Biodegradability in Seawater, Closed Bottle Method”, the biodegradability of the quaternized polylysine according to Example 3a, of Comp. sample 2 (Ultrahib®) and of a reference substance (sodium benzoate) was evaluated after 28 days and 60 days.

SMILES	Fann 35 values 3 ([1]; tap water) [Pa]	Fann 35 values 6 ([1]; tap water) [Pa]	Fann 35 values 100 ([1]; tap water) [Pa]	Fann 35 values 200 ([1]; tap water) [Pa]	Fann 35 values 300 ([1]; tap water) [Pa]	Fann 35 values 600 ([1]; tap water) [Pa]	Gel strength 10′ ([1]; tap water) [Pa]	Gel strength 10″ ([1]; tap water) [Pa]	PV ([1]; tap water) [mPa*s]	YP ([1]; tap water) [Pa]	pH ([1]; pH of the test mixture)	biodegradability Day 28 ([2]; after 28 days) [%]	biodegradability Day 60 ([2]; after 60 days) [%]
C[N+](C)(C)CCO.[Cl-] [Comp. 3, Cholinchlorid]	4	4	5	6	6	8	3	3	3	5	9.1		
O=C([O-])c1ccccc1.[Na+] [Reference, sodium benzoate]												80	70
